# Results as given in PubChem BioAssay (NCI).
#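 Each compound was tested at five concentrations against cells in 96-well plates for 48 hours. TGI: concentration producing complete growth inhibition.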
# What was measured:
# Experiment in all cases: inhibition of tumour cell growth, NCI panel, 48 h
# [1] = system: 786-0 renal
# [2] = system: A498 renal
# [3] = system: A549 NSCLC
# [4] = system: ACHN renal
# [5] = system: BT-549 breast
# [6] = system: CAKI-1 renal
# [7] = system: CCRF-CEM leukemia
# [8] = system: COLO 205 colon
# [9] = system: DU-145 prostate
# [10] = system: EKVX NSCLC
# [11] = system: HCT-116 colon
# [12] = system: HCT-15 colon
# [13] = system: HL-60(TB) leukemia
# [14] = system: HOP-62 NSCLC
# [15] = system: HS 578T breast
# [16] = system: HT29 colon
# [17] = system: IGROV1 ovarian
# [18] = system: KM12 colon
# [19] = system: LOX IMVI melanoma
# [20] = system: M14 melanoma
# [21] = system: MALME-3M melanoma
# [22] = system: MCF7 breast
# [23] = system: MDA-MB-231 breast
# [24] = system: MDA-MB-435
# [25] = system: MDA-N
# [26] = system: MOLT-4 leukemia
# [27] = system: NCI-H226 lung
# [28] = system: NCI-H23 lung
# [29] = system: NCI-H522 lung
# [30] = system: NCI/ADR-RES ovarian
# [31] = system: OVCAR-4 ovarian
# [32] = system: OVCAR-5 ovarian
# [33] = system: OVCAR-8 ovarian
# [34] = system: PC-3 prostate
# [35] = system: RXF 393 renal
# [36] = system: SF-268 CNS
# [37] = system: SF-295 CNS
# [38] = system: SF-539 CNS
# [39] = system: SK-MEL-2 melanoma
# [40] = system: SK-MEL-28 melanoma
# [41] = system: SK-MEL-5 melanoma
# [42] = system: SK-OV-3 ovarian
# [43] = system: SN12C renal
# [44] = system: SNB-19 CNS
# [45] = system: SNB-75 CNS
# [46] = system: SW-620 colon
# [47] = system: T-47D breast
# [48] = system: TK-10 renal
# [49] = system: U251 CNS
# [50] = system: UACC-257 melanoma
# [51] = system: UACC-62 melanoma
# [52] = system: UO-31 renal
structure (smiles),measurement,setting,value
CCOC(=O)C1(C/C=C/CBr)CCc2ccccc2C1=O (configuration not stated),TGI,[1],31.2 µM
same,TGI,[2],38 µM
same,TGI,[3],30.6 µM
same,TGI,[4],29.1 µM
same,TGI,[5],44 µM
same,TGI,[6],28.8 µM
same,TGI,[7],> 100 µM
same,TGI,[8],42.6 µM
same,TGI,[9],26.9 µM
same,TGI,[10],55 µM
same,TGI,[11],26.2 µM
same,TGI,[12],47.5 µM
same,TGI,[13],> 100 µM
same,TGI,[14],30.3 µM
same,TGI,[15],94.4 µM
same,TGI,[16],52.3 µM
same,TGI,[17],26.2 µM
same,TGI,[18],30.7 µM
same,TGI,[19],27.5 µM
same,TGI,[20],28.2 µM
same,TGI,[21],41.3 µM
same,TGI,[22],33.5 µM
same,TGI,[23],56 µM
same,TGI,[24],31 µM
same,TGI,[25],30.3 µM
same,TGI,[26],> 100 µM
same,TGI,[27],27.7 µM
same,TGI,[28],39.8 µM
same,TGI,[29],31.9 µM
same,TGI,[30],63.5 µM
same,TGI,[31],29.7 µM
same,TGI,[32],70.2 µM
same,TGI,[33],36.7 µM
same,TGI,[34],43 µM
same,TGI,[35],18.4 µM
same,TGI,[36],46 µM
same,TGI,[37],32.9 µM
same,TGI,[38],36.2 µM
same,TGI,[39],37.7 µM
same,TGI,[40],35.6 µM
same,TGI,[41],25.2 µM
same,TGI,[42],33.1 µM
same,TGI,[43],34.8 µM
same,TGI,[44],30.8 µM
same,TGI,[45],22.6 µM
same,TGI,[46],30.3 µM
same,TGI,[47],34.8 µM
same,TGI,[48],35.2 µM
same,TGI,[49],31.2 µM
same,TGI,[50],34.8 µM
same,TGI,[51],28.7 µM
same,TGI,[52],30.9 µM
